From patent US20020058299A1, “Mycologic genera specific selective agar and method of manufacture” (priority 2000, published 2002)

System: aggressive fungi
Assay: Empirical trials of Minimum Inhibitory Concentration levels that suppress aggressive fungi without restricting Stachybotrys
Type: cell-based
Conditions: added to PDA base media
Description: In order to be successful in culturing Stachybotrys from environmental samples, Aspergillus flavus, Aspergillus fumigatus, Aspergillus vervicolor, Cladosporium species, Penicillium species, in addition to other fungi and bacteria, need to be suppressed. While conceptually simple, the difficulty is to determine which base media, in combination with which one or more antibiotics, at what concentrations, incubated at what temperature regimes, for how long, would achieve inhibition of competitors—without restricting Stachybotrys. Extensive experimental trials empirically determined the Minimum Inhibitory Concentration (MIC) levels of various compounds that would effectively suppress aggressive fungi without restricting Stachybotrys development. Through this empirical effort there has been developed a proprietary formula for a selective agar (PDA+) based on commercially available base media and additional ingredients for the specific recovery of Stachybotrys chartarum.
(2) Miconazole (antifungal compound added to base media at 1.6 micrograms (μg) per milliliter (ml) of PDA+, the optimum concentration within the functional range of 1.0 to 3.2 μg/ml).

`Clc1ccc(COC(Cn2ccnc2)c2ccc(Cl)cc2Cl)c(Cl)c1` (stereo not shown) [Miconazole] was tested, and the “optimum concentration in PDA+” value was 1.6 micrograms (μg) per milliliter (ml).
